# According to US20230167467A1, “METHODS AND COMPOSITIONS FOR THE PRODUCTION OF ISOBUTENE” (University of Alaska Anchorage, priority 2020, published 2023):
# Test system: Engineered strains of E. coli
# Format: cell-based
# [1] = after solvent exposure, vs positive control
compound,measurement,setting,value
CCCCCC [hexane],"expression of acid resistance genes (gad, adi families)",,downregulated
same,"expression of chaperone proteins groLS, spy, and dnaJK",,highly upregulated
same,expression of dihydroxyacetone kinase genes dhaKLM,,upregulated
same,expression of flagellar protein synthesis and assembly genes,,downregulated
same,expression of gadE and adiY,,significantly downregulated
same,expression of galactitol metabolism genes gatABD,,upregulated
same,expression of glpABC (glycerol to glycerone phosphate),,upregulated
same,expression of heat shock proteins and chaperones hslJORUV,,strongest increases
same,expression of ibpAB and clpAB (protein protection and repair),,strongest increases
same,expression of marABC (multiple antibiotic resistance),,upregulated
same,expression of nitrate reductase genes narGHJKP,,upregulated
same,expression of phage shock genes pspABCDE,,highly upregulated
same,change in expression of gene adiA,[1],−4.64 ± 0.88
same,change in expression of gene adiC,[1],−4.53 ± 1.04
same,change in expression of gene adiY,[1],−3.19 ± 0.66
same,change in expression of gene bhsA,[1],3.01 ± 0.60
same,change in expression of gene bssR,[1],1.50 ± 0.44
same,change in expression of gene bssS,[1],5.47 ± 0.84
same,change in expression of gene clpA,[1],2.49 ± 0.63
same,change in expression of gene clpB,[1],5.02 ± 0.69
same,change in expression of gene clpP,[1],1.52 ± 0.59
same,change in expression of gene coaA,[1],−2.34 ± 0.88
same,change in expression of gene coaD,[1],0.57 ± 0.90
same,change in expression of gene cspA,[1],−4.08 ± 0.57
same,change in expression of gene cspB,[1],−4.25 ± 1.30
same,change in expression of gene cspC,[1],−2.22 ± 0.90
same,change in expression of gene cspD,[1],2.07 ± 0.57
same,change in expression of gene cspE,[1],−0.53 ± 0.63
same,change in expression of gene cspF,[1],−3.67 ± 1.04
same,change in expression of gene dhaK,[1],3.83 ± 0.58
same,change in expression of gene dhaL,[1],2.77 ± 0.62
same,change in expression of gene dnaJ,[1],4.46 ± 0.69
same,change in expression of gene dnaK,[1],4.31 ± 0.66
same,change in expression of gene fabA,[1],−0.96 ± 0.75
same,change in expression of gene fabB,[1],2.15 ± 0.66
same,change in expression of gene fabD,[1],−0.89 ± 0.52
same,change in expression of gene flgA,[1],−2.91 ± 1.55
same,change in expression of gene flgB,[1],−6.86 ± 1.62
same,change in expression of gene flgC,[1],−7.12 ± 2.02
same,change in expression of gene flgD,[1],−6.97 ± 1.94
same,change in expression of gene flgE,[1],−5.83 ± 1.20
same,change in expression of gene flgF,[1],−5.93 ± 1.66
same,change in expression of gene flgG,[1],−5.59 ± 1.51
same,change in expression of gene flgH,[1],−4.58 ± 1.75
same,change in expression of gene gabD,[1],−1.81 ± 1.34
same,change in expression of gene gabP,[1],−3.20 ± 1.33
same,change in expression of gene gabT,[1],−1.73 ± 1.30
same,change in expression of gene gadA,[1],−1.47 ± 0.68
same,change in expression of gene gadB,[1],−0.69 ± 0.80
same,change in expression of gene gadC,[1],−0.25 ± 0.80
same,change in expression of gene gadE,[1],−2.22 ± 0.60
same,change in expression of gene gadW,[1],−4.92 ± 0.97
same,change in expression of gene gadX,[1],−2.95 ± 0.57
same,change in expression of gene gadY,[1],−5.22 ± 0.81
same,change in expression of gene glpA,[1],7.69 ± 0.87
same,change in expression of gene glpB,[1],5.40 ± 0.63
same,change in expression of gene glpC,[1],6.04 ± 0.79
same,change in expression of gene groL,[1],4.16 ± 0.57
same,change in expression of gene groS,[1],4.25 ± 0.50
same,change in expression of gene hchA,[1],0.77 ± 0.60
same,change in expression of gene hslJ,[1],2.29 ± 0.65
same,change in expression of gene hslO,[1],3.04 ± 0.64
same,change in expression of gene hslR,[1],3.21 ± 0.65
same,change in expression of gene hslU,[1],3.61 ± 0.55
same,change in expression of gene hslV,[1],2.94 ± 0.61
same,change in expression of gene ibpA,[1],7.63 ± 1.21
same,change in expression of gene ibpB,[1],8.41 ± 1.50
same,change in expression of gene lhgO,[1],−1.20 ± 1.67
same,change in expression of gene lipA,[1],0.42 ± 0.59
same,change in expression of gene lipB,[1],−0.05 ± 0.63
same,change in expression of gene narG,[1],4.03 ± 0.65
same,change in expression of gene narH,[1],3.23 ± 0.61
same,change in expression of gene narI,[1],2.02 ± 0.92
same,change in expression of gene narJ,[1],2.26 ± 0.68
same,change in expression of gene narK,[1],2.20 ± 0.84
same,change in expression of gene potA,[1],−2.87 ± 0.80
same,change in expression of gene potB,[1],−2.22 ± 1.29
same,change in expression of gene potC,[1],−1.06 ± 1.18
same,change in expression of gene pspA,[1],8.97 ± 0.55
same,change in expression of gene pspB,[1],7.11 ± 0.68
same,change in expression of gene rpoA,[1],0.76 ± 0.44
same,change in expression of gene rpoB,[1],0.54 ± 0.40
same,change in expression of gene rpoC,[1],1.02 ± 0.39
same,change in expression of gene rpoD,[1],3.14 ± 0.70
same,change in expression of gene rpoE,[1],−2.64 ± 0.62
same,change in expression of gene rpoH,[1],0.31 ± 0.52
same,change in expression of gene rpoN,[1],−1.24 ± 0.49
same,change in expression of gene rpoS,[1],0.42 ± 0.47
same,change in expression of gene rpoZ,[1],−0.98 ± 0.53
same,change in expression of gene spy,[1],4.12 ± 0.87
same,change in expression of gene tatA,[1],−0.89 ± 0.51
same,change in expression of gene tatB,[1],−0.66 ± 0.58
same,change in expression of gene tatC,[1],−1.03 ± 1.08
same,change in expression of gene tatD,[1],−2.65 ± 1.13
same,change in expression of gene tatE,[1],0.78 ± 0.63
same,number of genes with significant changes in expression,"vs control, Bon Ferroni corrected p-value<0.05",535 genes
